# In patent US12297210B2, “Naphthyridine compounds and uses thereof” (Genentech, Inc., priority 2018, dated 2025):
# Target: T1, HPK full length, T165E S171E (Homo sapiens, UniProt Q92918, S171E/T165E)
# T1 construct: HPK full length, T165E S171E: 0.125 nM
# Assay: HPK1-FL HTRF Enzymatic Assay ("HTRF")
# Format: biochemical
# Settings: ATP 1 mM, read-out: HPK1 Ki (nM) H = HTRF
# Procedure: Example B1: HPK1-FL HTRF Enzymatic Assay (“HTRF”)
# HPK-FL enzyme phosphorylates Biotin-SLP-76 substrate in the presence of ATP at 1 mM and varying concentrations of test compound. Product is detected by FRET using Eu-anti-pSLP76 Ab and SA-XL665. Also see www.cisbio.com/HTRF for additional HTRF technology information.
# • Echo555 compound dispenser • Agilent Bravo • Perkin Elmer Envision Final Assay Conditions: • HPK full length, T165E S171E: 0.125 nM • Biotin-SLP76: 100 nM • ATP: 1 mM (ATP Km=20 μM) • Eu-anti-pSLP76: 2 nM • SA-XL665: 8.3 nM • Preincubation time: 30 min • Kinase reaction time: 60 min • Temperature: ambient • Total volume: 12 μl • ATP^app Km: 17.7 μM Materials: • Assay plate: White ProxiPlate 384 F (PerkinElmer cat #6008289) • Kinase: HPK full length double mutant • Substrate: Biotin-SLP76 • ATP: 100 mM ATP • BSG: 2% BSG • DMSO: DMSO(Sigma cat #34869-100ML) • Reaction Buffer: H2O/50 mM HEPES, pH 7.5/10 mM MgCl2/2 mM TCEP/0.01% Brij-35/0.01% BSG • Detection mix: Eu-anti-pSLP76/SA-XL665 (Cisbio, #610SAXAC) Assay Procedure Ki Determination:
# To a 384 well Proxiplate with 80 nL compound or DMSO spotted on was added 4 μl/well kinase mix. The mixture was preincubated for 30 minutes and then 4 μl/well substrate mix was added. The solution was incubated for 60 min and then 4 μl/well detection mix was added. The solution was incubated for another 60 min. The plates were then loaded onto a Perkin Elmer Envision and the TR-FRET signal was measured at 615 and 665 nm. A ratio of […] was used to calculate the % activity at each concentration of compound.
# T1 sequence (Q92918 whole entry T165E/S171E): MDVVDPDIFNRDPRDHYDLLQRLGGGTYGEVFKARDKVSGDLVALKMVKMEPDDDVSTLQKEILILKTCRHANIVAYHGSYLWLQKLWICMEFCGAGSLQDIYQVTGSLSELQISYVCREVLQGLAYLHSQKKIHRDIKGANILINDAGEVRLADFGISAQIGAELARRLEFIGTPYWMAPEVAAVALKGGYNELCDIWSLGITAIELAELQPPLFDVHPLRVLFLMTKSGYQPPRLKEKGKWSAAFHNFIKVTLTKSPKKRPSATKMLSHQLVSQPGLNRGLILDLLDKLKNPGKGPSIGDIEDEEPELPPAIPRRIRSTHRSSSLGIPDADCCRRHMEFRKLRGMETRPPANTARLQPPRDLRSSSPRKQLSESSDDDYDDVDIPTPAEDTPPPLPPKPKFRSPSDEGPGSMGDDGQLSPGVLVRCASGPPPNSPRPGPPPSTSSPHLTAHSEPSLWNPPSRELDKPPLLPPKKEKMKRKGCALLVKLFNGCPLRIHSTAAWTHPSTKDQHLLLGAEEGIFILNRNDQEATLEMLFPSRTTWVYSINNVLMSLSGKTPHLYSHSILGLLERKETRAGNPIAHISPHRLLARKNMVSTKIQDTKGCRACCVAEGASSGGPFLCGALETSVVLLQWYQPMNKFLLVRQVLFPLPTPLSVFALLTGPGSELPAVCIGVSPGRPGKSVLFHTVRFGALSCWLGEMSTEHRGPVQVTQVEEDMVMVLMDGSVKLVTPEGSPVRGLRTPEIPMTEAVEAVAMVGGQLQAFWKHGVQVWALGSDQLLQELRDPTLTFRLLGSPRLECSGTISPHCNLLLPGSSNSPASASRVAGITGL
row,SMILES,Ki [nM]
1,"CNCc1cc(C)c(-c2cc3cc(Nc4cc5n(n4)CC(=O)N(C)CC5)ncc3cn2)c(F)c1 [Compound 110, 2-((6-(2-fluoro-6-methyl-4-((methylamino)methyl)phenyl)-2,7-naphthyridin-3-yl)amino)-6-methyl-5,6-dihydro-4H-pyrazolo[1,5-d][1,4]diazepin-7(8H)-one]",13
2,"COc1nc(-c2cnc3c(c2C)NCCO3)cc2cc(Nc3cc4n(n3)CC(=O)N(C)CC4)ncc12 [Compound 107, 2-((8-methoxy-6-(8-methyl-2,3-dihydro-1H-pyrido[2,3-b][1,4]oxazin-7-yl)-2,7-naphthyridin-3-yl)amino)-6-methyl-5,6-dihydro-4H-pyrazolo[1,5-d][1,4]diazepin-7(8H)-one]",2.1
3,"Cc1ccncc1-c1cc2cc(Nc3ccc(CO)cn3)ncc2cn1 [Compound 206, (6-((6-(4-methylpyridin-3-yl)-2,7-naphthyridin-3-yl)amino)pyridin-3-yl)methanol]",577
4,"Cc1c(N)cncc1-c1cc2cc(Nc3cc4n(n3)Cc3nccn3CC4)ncc2c(C)n1 [Compound 105, N-(6-(5-amino-4-methylpyridin-3-yl)-8-methyl-2,7-naphthyridin-3-yl)-5,6-dihydro-11H-imidazo[1,2-a]pyrazolo[1,5-d][1,4]diazepin-8-amine]",0.85
5,"Cc1ccncc1-c1cc2cc(Nc3ccc(S(C)(=O)=O)cn3)ncc2cn1 [Compound 202, 6-(4-methylpyridin-3-yl)-N-(5-(methylsulfonyl)pyridin-2-yl)-2,7-naphthyridin-3-amine]",291
6,"Cc1ccncc1-c1cc2cc(Nc3cc(C(=O)N(C)C)c(N)cn3)ncc2cn1 [Compound 201, 5-amino-N,N-dimethyl-2-((6-(4-methylpyridin-3-yl)-2,7-naphthyridin-3-yl)amino)isonicotinamide]",463
7,"Cc1c(-c2cc3cc(Nc4cc5n(n4)CC(=O)N(C)CC5)ncc3c(C)n2)cnc2c1NCCO2 [Compound 108, 6-methyl-2-((8-methyl-6-(8-methyl-2,3-dihydro-1H-pyrido[2,3-b][1,4]oxazin-7-yl)-2,7-naphthyridin-3-yl)amino)-5,6-dihydro-4H-pyrazolo[1,5-d][1,4]diazepin-7(8H)-one]",0.66
8,"Cc1c(N)cncc1-c1cc2cc(Nc3cc4n(n3)CC(=O)N(C(C)C)CC4)ncc2cn1 [Compound 104, 2-((6-(5-amino-4-methylpyridin-3-yl)-2,7-naphthyridin-3-yl)amino)-6-isopropyl-5,6-dihydro-4H-pyrazolo[1,5-d][1,4]diazepin-7(8H)-one]",2.3
9,"Cc1c(-c2cc3cc(Nc4cc5n(n4)CC(=O)N(C)CC54CC4)ncc3c(C)n2)cnc2c1NCCO2 [Compound 109, 6′-methyl-2′-((8-methyl-6-(8-methyl-2,3-dihydro-1H-pyrido[2,3-b][1,4]oxazin-7-yl)-2,7-naphthyridin-3-yl)amino)-5′,6′-dihydrospiro[cyclopropane-1,4′-pyrazolo[1,5-d][1,4]diazepin]-7′(8′H)-one]",0.03
10,"Cc1cc(Nc2cc3cc(C4CC4)ncc3cn2)ncn1 [Compound 209, 6-cyclopropyl-N-(6-methylpyrimidin-4-yl)-2,7-naphthyridin-3-amine]",> 2000
11,"Cc1c(N)cncc1-c1cc2cc(Nc3cc4n(n3)CC(=O)N(C(C)C)CC4)ncc2c(C)n1 [Compound 106, 2-((6-(5-amino-4-methylpyridin-3-yl)-8-methyl-2,7-naphthyridin-3-yl)amino)-6-isopropyl-5,6-dihydro-4H-pyrazolo[1,5-d][1,4]diazepin-7(8H)-one]",2.5
12,"Cc1c(N)cncc1-c1cc2cc(Nc3cc4n(n3)CC(=O)N(CC(F)F)CC4)ncc2cn1 [Compound 102, 2-((6-(5-amino-4-methylpyridin-3-yl)-2,7-naphthyridin-3-yl)amino)-6-(2,2-difluoroethyl)-5,6-dihydro-4H-pyrazolo[1,5-d][1,4]diazepin-7(8H)-one]",4

# Target: T2, HPK1 (Homo sapiens, UniProt Q92918)
# T2 construct: purchased Signalchem M23-11G
# T2 sequence (Q92918 1-346 limits assumed): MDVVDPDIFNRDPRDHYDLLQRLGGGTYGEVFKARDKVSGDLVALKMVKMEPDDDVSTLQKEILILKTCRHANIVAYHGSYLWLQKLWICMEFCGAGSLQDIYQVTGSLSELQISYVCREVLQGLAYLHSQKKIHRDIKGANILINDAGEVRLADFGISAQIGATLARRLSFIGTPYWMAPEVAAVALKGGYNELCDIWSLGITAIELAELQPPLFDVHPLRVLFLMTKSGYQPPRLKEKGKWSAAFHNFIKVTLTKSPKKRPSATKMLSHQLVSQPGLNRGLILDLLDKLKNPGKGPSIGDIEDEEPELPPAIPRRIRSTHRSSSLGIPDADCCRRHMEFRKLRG
# Assay: HPK1 Lantha Binding Assay ("Lanth")
# Settings: 15 nM Tracer222, read-out: HPK1 Ki (nM) L = Lanth
# Procedure: Example B2: HPK1 Lantha Binding Assay (“Lanth”)
# The compounds to be tested were diluted by preparing 12.5 uL/well of 5 mM compound (100×) in columns 2 and 13 and 10 ul/well of DMSO in columns 3-12, 14-23, and wells A1-H1 and I24-P24 of the compound plate using a Bravo liquid handling platform. For the reference compound, the top concentration was 1 mM. To the plate was added 10 ul 2 mM staurosporine in wells J1-P1 and A24-H24. A 11 point 5-fold compound serial dilution was performed using the Bravo liquid handling platform. From the plate were transferred 2.5 ul of the solutions from column 2 and column 13 to the 10 ul of DMSO in columns 3 and 14 & so on. The compound plate was centrifuged at 2500 rpm for 1 min. From the compound plate was transferred 80 nl of the compounds into an assay plate using the Echo liquid handler system. One compound plate makes two assay plates. Each assay plate is sealed and stored in an N2 cabinet.
# The following assay concentrations and times were used: 2 nM HPK1, 2 nM Eu-Anti-GST Ab, and 15 nM Tracer222, with 60 min incubation time.
# For the binding assay, 4 ul 2×HPK1 and Eu-anti-GST antibody were added to each well of the assay plate using a Multidrop reagent dispenser. The solutions were incubated in a 23 C incubator for 1 h. To each well of the assay plate was added 4 ul 2×Tracer-222 using a Multidrop reagent dispenser. The solutions were again incubated in a 23 C incubator for 1 h. The results of the assay were read using an Envision plate reader with the following parameters: TR_FRET, 340ex/615 and 665em; 100 usec Delay; and 200 usec integration.
# Compound Ki was analyzed using Morrison ki fit model in XL-fit • a. fit=(1−((((E+x)+(Ki*(1+(S/Kd))))−(((((E+x)+(Ki*(1+(S/Kd))))^2)−((4*E)*x))^0.5))/(2*E))) • res=(y-fit) • b. Parameters: • E=enzyme concentration • S=Tracer222 concentration, Kd=Tracer222 Kd • All measurements reported using the same units (uM)
row,SMILES,Ki [nM]
1,"Cc1ccncc1-c1cc2cc(Nc3ccc(C(=O)N(C)C)cn3)ncc2cn1 [Compound 204, N,N-dimethyl-6-((6-(4-methylpyridin-3-yl)-2,7-naphthyridin-3-yl)amino)nicotinamide]",24
2,"Cc1c(-c2cc3cc(Nc4cc5n(n4)CC(=O)N(C(C)C)CC5)ncc3cn2)cnc2c1NCCO2 [Compound 103, 6-isopropyl-2-((6-(8-methyl-2,3-dihydro-1H-pyrido[2,3-b][1,4]oxazin-7-yl)-2,7-naphthyridin-3-yl)amino)-5,6-dihydro-4H-pyrazolo[1,5-d][1,4]diazepin-7(8H)-one]",0.39
3,"Cc1cc(Nc2cc3cc(-c4cnccc4C)ncc3cn2)nc(N)n1 [Compound 210, 6-methyl-N^4-(6-(4-methylpyridin-3-yl)-2,7-naphthyridin-3-yl)pyrimidine-2,4-diamine]",3.9
4,"Cc1ccncc1-c1cc2cc(Nc3ccc(CCO)cn3)ncc2cn1 [Compound 208, 2-(6-((6-(4-methylpyridin-3-yl)-2,7-naphthyridin-3-yl)amino)pyridin-3-yl)ethan-1-ol]",28
5,"CNS(=O)(=O)c1ccc(Nc2cc3cc(-c4cnccc4C)ncc3cn2)nc1 [Compound 207, N-methyl-6-((6-(4-methylpyridin-3-yl)-2,7-naphthyridin-3-yl)amino)pyridine-3-sulfonamide]",11
